In US20220273683A1, “BORON-CONTAINING SMALL MOLECULES” (Bill & Melinda Gates Foundation, priority 2016, published 2022):
Values after ≈ are worked out from the molar mass of the structure shown.

Legend:
Assay type in all cases: cell-based
[1] = tested on: Wolbachia pipientis in C6/36 cell line; assay: Anti-Wolbachia high-content assay; conditions: C6/36 (wAlbB) cells, 7 days at 26° C., 50% reduction of Wolbachia
Text: C6/36 cells (ECACC #89051705, derived from Aedes albopictus larvae) were infected with Wolbachia pipientis derived from the supernatant of cultured A. albopictus Aa23 cells to create a stably Wolbachia-infected cell line C6/36 (wAlbB). This cell line was subpassaged 6-8 days prior to plating out at a density of 2000 viable cells per well in a 384-well CellCarrier plate suspended in Liebovitz media supplemented with 20% fetal bovine serum, 2% tryptose phosphate broth and 1% non-essential amino acids. Compounds were dissolved and diluted in DMSO, and compound solution was added to each well to provide a final DMSO concentration <1% and a total volume of 100 μL per well. Following 7 days of sterile incubation at 26° C., staining media containing SYTO 11 DNA dye was added to each well. After 15 minutes, all media was removed from each well and fresh media (no stain) was added. Imaging of each well was accomplished using a Perkin Elmer Operetta high-content imaging system. Five fields per well were imaged using a confocal 60× objective with the Fluorescein filter (excitation filter: 460-490 nm; emission filter: 500-550 nm). Images were analyzed using the Perkin Elmer Harmony software to score each intact cell on the basis of texture complexity of the cytoplasm. Full details can be found in: […]. Biomol. Screening, 2015, 20, […]. Compound sample wells were analyzed and normalized (along with the positive controls) against the vehicle (untreated) control to give a percentage reduction of Wolbachia-infected cells. Using the cell number analysis, compounds with a host cell number amounting to less than 50% of the vehicle control were classified as toxic and retested at a reduced compound concentration. Dose-response curves were generated with percentage reduction of Wolbachia-infected cells versus compound concentration, using 5-10 compound serial dilutions. Data were analyzed and compound EC50 is determined using a 4 parameter logistic nonlinear regression model.

[2] = tested on: Streptococcus pneumoniae (ATCC 49619); assay: Antibacterial MIC assay (microbroth dilution, CLSI); conditions: 35° C., 16-20 hours; for MIC Streptococcus pneumoniae (ATCC 49619): 3% lysed horse blood; for MIC: Streptococcus pneumoniae, ATCC49619, 3% lysed horse blood
Summary of the method: (§1)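 Microbroth dilution per CLSI M07-A10/M100-S25 in cation-adjusted Mueller-Hinton broth, with 3% lysed horse blood added for S. pneumoniae. Inoculum from a 0.5 McFarland direct colony suspension, diluted to 5×10^5 CFU/mL in the well. Compounds were 2-fold serially diluted; MIC read against a growth control.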

[3] = tested on: Staphylococcus aureus, MRSA (ATCC 33591); assay: as above; conditions: 35° C., 16-20 hours; for MIC: Staphylococcus aureus
Summary of the method: as §1

Structure (SMILES) | EC50 [1] [nM] | MIC Streptococcus pneumoniae (ATCC 49619) [2] | MIC Staphylococcus aureus, MRSA (ATCC 33591) [3] | EC50 ([1]; Wolbachia pipientis) [nM] | MIC [2] [µg/mL] | MIC [3] [µg/mL]
C[C@@H]1CC[C@@]23CCC(=O)[C@H]2[C@]1(C)[C@H](OC(=O)COc1ccc2c(c1F)B(O)OC2)C[C@@]1(C)CCC(=O)O[C@H]1[C@@H]3C [Compound 1, (4aR,6R,7R,7aR,10aS,11R,11aS,14R)-4a,7,11,14-tetramethyl-2,8-dioxododecahydro-2H-7,10a-propanocyclopenta[6,7]cycloocta[1,2-b]pyran-6-yl2-((7-fluoro-1-hydroxy-1,3-dihydrobenzo[c][1,2]oxaborol-6-yl)oxy)acetate] | > 1000 | C (4-32 is C) | B (0.5-2 is B) |  |  | 
C[C@@H]1CC[C@@]23CCC(=O)[C@H]2[C@]1(C)[C@H](OC(=O)COc1ccc2c(c1F)B(O)OC2)C[C@@](C)(CCC(N)=O)[C@@H](O)[C@@H]3C [Compound 2, (3aR,4R,5R,7R,8S,9R,9aS,12R)-7-(3-amino-3-oxopropyl)-8-hydroxy-4,7,9,12-tetramethyl-3-oxodecahydro-4,9a-propanocyclopenta[8]annulen-5-yl2-((7-fluoro-1-hydroxy-1,3-dihydrobenzo[c][1,2]oxaborol-6-yl)oxy)acetate] | > 1000 | C (4-32 is C) | C (4-32 is C) |  |  | 
CNC(=O)CC[C@]1(C)C[C@@H](OC(=O)COc2ccc3c(c2F)B(O)OC3)[C@]2(C)[C@H](C)CC[C@]3(CCC(=O)[C@H]32)[C@@H](C)[C@@H]1O [Compound 3, (3aR,4R,5R,7R,8S,9R,9aS,12R)-8-hydroxy-4,7,9,12-tetramethyl-7-(3-(methylamino)-3-oxopropyl)-3-oxodecahydro-4,9a-propanocyclopenta[8]annulen-5-yl2-((7-fluoro-1-hydroxy-1,3-dihydrobenzo[c][1,2]oxaborol-6-yl)oxy)acetate] | > 1000 | B (0.5-2 is B) | B (0.5-2 is B) |  |  | 
CCNC(=O)CC[C@]1(C)C[C@@H](OC(=O)COc2ccc3c(c2F)B(O)OC3)[C@]2(C)[C@H](C)CC[C@]3(CCC(=O)[C@H]32)[C@@H](C)[C@@H]1O [Compound 4, (3aR,4R,5R,7R,8S,9R,9aS,12R)-7-(3-(ethylamino)-3-oxopropyl)-8-hydroxy-4,7,9,12-tetramethyl-3-oxodecahydro-4,9a-propanocyclopenta[8]annulen-5-yl2-((7-fluoro-1-hydroxy-1,3-dihydrobenzo[c][1,2]oxaborol-6-yl)oxy)acetate] | 283 | B (0.5-2 is B) | B (0.5-2 is B) |  |  | 
CCCCNC(=O)CC[C@]1(C)C[C@@H](OC(=O)COc2ccc3c(c2F)B(O)OC3)[C@]2(C)[C@H](C)CC[C@]3(CCC(=O)[C@H]32)[C@@H](C)[C@@H]1O [Compound 5, (3aR,4R,5R,7R,8S,9R,9aS,12R)-7-(3-(butylamino)-3-oxopropyl)-8-hydroxy-4,7,9,12-tetramethyl-3-oxodecahydro-4,9a-propanocyclopenta[8]annulen-5-yl2-((7-fluoro-1-hydroxy-1,3-dihydrobenzo[c][1,2]oxaborol-6-yl)oxy)acetate] | 305 | B (0.5-2 is B) | B (0.5-2 is B) |  |  | 
C[C@@H]1CC[C@@]23CCC(=O)[C@H]2[C@]1(C)[C@H](OC(=O)COc1ccc2c(c1F)B(O)OC2)C[C@@](C)(CCC(=O)NC1CC1)[C@@H](O)[C@@H]3C [Compound 6, (3aR,4R,5R,7R,8S,9R,9aS,12R)-7-(3-(cyclopropylamino)-3-oxopropyl)-8-hydroxy-4,7,9,12-tetramethyl-3-oxodecahydro-4,9a-propanocyclopenta[8]annulen-5-yl2-((7-fluoro-1-hydroxy-1,3-dihydrobenzo[c][1,2]oxaborol-6-yl)oxy)acetate] | 392 | B (0.5-2 is B) | B (0.5-2 is B) |  |  | 
COC(=O)/C=C/[C@]1(C)C[C@@H](OC(=O)COc2ccc3c(c2F)B(O)OC3)[C@]2(C)[C@H](C)CC[C@]3(CCC(=O)[C@H]32)[C@@H](C)[C@@H]1O [Compound 12, methyl (E)-3-((3aR,4R,5R,7S,8S,9R,9aS,12R)-5-(2-((7-fluoro-1-hydroxy-1,3-dihydrobenzo[c][1,2]oxaborol-6-yl)oxy)acetoxy)-8-hydroxy-4,7,9,12-tetramethyl-3-oxodecahydro-4,9a-propanocyclopenta[8]annulen-7-yl)acrylate] |  |  |  | 81 | < 0.25 | < 0.25
C[C@@H]1CC[C@@]23CCC(=O)[C@H]2[C@]1(C)[C@H](OC(=O)COc1ccc2c(c1F)B(O)OC2)C[C@@](C)(/C=C/C(=O)O)[C@@H](O)C3 [Compound 13, (E)-3-((3aR,4R,5R,7S,8S,9aS,12R)-5-(2-((7-fluoro-1-hydroxy-1,3-dihydrobenzo[c][1,2]oxaborol-6-yl)oxy)acetoxy)-8-hydroxy-4,7,12-trimethyl-3-oxodecahydro-4,9a-propanocyclopenta[8]annulen-7-yl)acrylic acid] |  |  |  | > 1000 | > 64 | 4 to 32 (≈ 7.16 to 57.3 µM)
C[C@@H]1CC[C@@]23CCC(=O)[C@H]2[C@]1(C)[C@H](OC(=O)COc1ccc2c(c1F)B(O)OC2)C[C@@](C)(CN)[C@@H](O)[C@@H]3C [Compound 47, (3aR,4R,5R,7S,8S,9R,9aS,12R)-7-(aminomethyl)-8-hydroxy-4,7,9,12-tetramethyl-3-oxodecahydro-4,9a-propanocyclopenta[8]annulen-5-yl2-((7-fluoro-1-hydroxy-1,3-dihydrobenzo[c][1,2]oxaborol-6-yl)oxy)acetate] |  | C (4-32 is C) | B (0.5-2 is B) |  |  | 
CC(=O)NC[C@]1(C)C[C@@H](OC(=O)COc2ccc3c(c2F)B(O)OC3)[C@]2(C)[C@H](C)CC[C@]3(CCC(=O)[C@H]32)[C@@H](C)[C@@H]1O [Compound 48, (3aR,4R,5R,7S,8S,9R,9aS,12R)-7-(acetamidomethyl)-8-hydroxy-4,7,9,12-tetramethyl-3-oxodecahydro-4,9a-propanocyclopenta[8]annulen-5-yl2-((7-fluoro-1-hydroxy-1,3-dihydrobenzo[c][1,2]oxaborol-6-yl)oxy)acetate] |  | C (4-32 is C) | B (0.5-2 is B) |  |  | 
C[C@@H]1CC[C@@]23CCC(=O)[C@H]2[C@]1(C)[C@H](OC(=O)COc1ccc2c(c1F)B(O)OC2)C[C@@](C)(CN)[C@@H](OS(C)(=O)=O)[C@@H]3C [Compound 50, (3aR,4R,5R,7S,8S,9R,9aS,12R)-7-(aminomethyl)-4,7,9,12-tetramethyl-8-((methylsulfonyl)oxy)-3-oxodecahydro-4,9a-propanocyclopenta[8]annulen-5-yl2-((7-fluoro-1-hydroxy-1,3-dihydrobenzo[c][1,2]oxaborol-6-yl)oxy)acetate] |  | C (4-32 is C) | C (4-32 is C) |  |  | 
Cc1nnc(/C=C/[C@]2(C)C[C@@H](OC(=O)COc3ccc4c(c3F)B(O)OC4)[C@]3(C)[C@H](C)CC[C@]4(CCC(=O)[C@H]43)[C@@H](C)[C@@H]2O)o1 [Compound 51, (3aR,4R,5R,7S,8S,9R,9aS,12R)-8-hydroxy-4,7,9,12-tetramethyl-7-((E)-2-(5-methyl-1,3,4-oxadiazol-2-yl)vinyl)-3-oxodecahydro-4,9a-propanocyclopenta[8]annulen-5-yl2-((7-fluoro-1-hydroxy-1,3-dihydrobenzo[c][1,2]oxaborol-6-yl)oxy)acetate] |  | B (0.5-2 is B) | B (0.5-2 is B) |  |  | 
Cc1noc(/C=C/[C@]2(C)C[C@@H](OC(=O)COc3ccc4c(c3F)B(O)OC4)[C@]3(C)[C@H](C)CC[C@]4(CCC(=O)[C@H]43)[C@@H](C)[C@@H]2O)n1 [Compound 52, (3aR,4R,5R,7S,8S,9R,9aS,12R)-8-hydroxy-4,7,9,12-tetramethyl-7-((E)-2-(3-methyl-1,2,4-oxadiazol-5-yl)vinyl)-3-oxodecahydro-4,9a-propanocyclopenta[8]annulen-5-yl2-((7-fluoro-1-hydroxy-1,3-dihydrobenzo[c][1,2]oxaborol-6-yl)oxy)acetate] |  | A (MIC of ≤0.25 is A) | A (MIC of ≤0.25 is A) |  |  | 
